What is called EC50 is the concentration that produces a half-maximal response.

One data set has as its system Aβ accumulation. The note with it: transgenic mice; cited from earlier work.
Data set [1] is described as follows: Fluorescence (FRET) titration with gadolinium(III) ions. It counts as binding. As to conditions: for Gd^+3 binding, effect on FRET activity: 10 μM peptide, pH dependence.
A short description of data set [2]: Fluorescence (FRET) titration with zinc(II) ions. It counts as binding. The note with it: for effect of the mutation on zinc binding: mutant versus P1P.
Data set [3] in a line: Fluorescence (FRET) titration with magnesium(II) ions. It counts as binding.
Data set [4] in a line: Fluorescence (FRET) titration with calcium(II) ions. It counts as binding.
Data set [5] is described as follows: Fluorescence (FRET) titration with copper(II) ions. As to conditions: for effect of the mutation on copper binding: mutant versus P1P. It counts as binding.
The nature of data set [6]: 1H longitudinal relaxivity (NMRD). It counts as physicochemical. As to conditions: salt only, 50 mM NEM, pH=7.0, 20 MHz. The procedure:
Smart contrast agents with larger relaxivity values imply lower MRI detection limits for the target species and are advantageous over contrast agents with lower relaxivity values.
The incubation was conducted in the dark, at room temperature, and lasted for 3 hours. The longitudinal relaxivity was measured at field strengths between 0.01 MHz to 20 MHz. […] The underlining mechanisms responsible for the observed behavior have not been well characterized to date, but likely contain contributions from several factors including gadolinium-copper ion exchange, alterations in peptide solubility, peptide structural rearrangements, remaining synthesis impurities, and buffer interactions with both copper and gadolinium ions.

For data set [7], the system named is endogenous β-amyloid peptides. As to conditions: cerebrospinal fluid; read-out: EC50 for conversion of endogenous β-amyloid peptides into insoluble aggregates; cited from earlier work.

Where no end group is shown, it is not given here. The star is where a group is joined. dabcyl = dabcyl quencher on the Lys side chain, CN(C)c1ccc(/N=N/c2ccc(C(=O)*)cc2)cc1; K(FAM) = lysine with FAM attached to its side chain

Turning to `Oc1c(I)cc(Cl)c2cccnc12` [clioquinol], the “inhibition of Aβ accumulation” value in the data set on Aβ accumulation is “significant inhibition of Aβ accumulation”.

For the molecule “K(FAM)PAGGGWGQK(dabcyl) ({K(FAM)}-PAGGGWGQK(dabcyl)) [P17, mutant version of P1P, histidine to alanine]”, in data set [1], the “Gd^+3 binding, effect on FRET activity” value is given as “marked increase in Gd^+3 binding with increasing pH”. Besides, in data set [2], the “effect of the mutation on zinc binding” value is listed as “most critical”. Moreover, the “binding with Mg^+2” value in data set [3] is on record as “No binding”. Also, the “binding with Ca^+2” value in data set [4] was “No binding”. Besides, the “effect of the mutation on copper binding” value in data set [5] is recorded as “most critical”.

`O=S(=O)([O-])[O-].[Cu+2]` [CuSO4]: the relaxivity in data set [6] is 0.4 mM⁻¹ s⁻¹.

As to `[Zn+2]` [zinc ions], the EC50 in data set [7] was 120 to 140 µM.

Regarding “K(FAM)PHGGGAGQK(dabcyl) ({K(FAM)}-PHGGGAGQK(dabcyl)) [P16, mutant version of P1P, tryptophan to alanine]”, the “Gd^+3 binding, effect on FRET activity” value in data set [1] is listed as “marked increase in Gd^+3 binding with increasing pH”. In addition, the “effect of the mutation on zinc binding” value in data set [2] is given as “significant effect”. Also, the “binding with Mg^+2” value in data set [3] was “No binding”. For the same molecule, the “binding with Ca^+2” value in data set [4] was “No binding”. In addition, the “effect of the mutation on copper binding” value in data set [5] is listed as “significant effect”.

With “K(FAM)PHGGGWGAK(dabcyl) ({K(FAM)}-PHGGGWGAK(dabcyl)) [P18, mutant version of P1P, glutamine to alanine]”, the “Gd^+3 binding, effect on FRET activity” value in data set [1] is given as “marked increase in Gd^+3 binding with increasing pH”. In addition, in data set [1] (versus base P1P peptide), the “effect of the mutation on affinity of Gd^+3 ions” value is reported as “reduce the affinity”. Further, the “effect of the mutation on zinc binding” value in data set [2] is listed as “either had no effect, or even increased the peptide binding strength”. The “effect of the mutation on binding affinity for zinc” value in data set [2] (pH ≦7) is “little effect”. The “effect of the mutation on binding activity with zinc” value in data set [2] (pH=7.6) is “increase the binding activity”. Also, in data set [3], the “binding with Mg^+2” value was “No binding”. For the same molecule, the “binding with Ca^+2” value in data set [4] is reported as “No binding”. For the same molecule, the “effect of the mutation on copper binding” value in data set [5] was “either had no effect, or even increased the peptide binding strength”. The “effect of the mutation on binding affinity for copper” value in data set [5] (pH ≦7) is given as “little effect”. For the same molecule, the “effect of the mutation on binding activity with copper” value in data set [5] (pH=7.6) is “increase the binding activity”.

With `[Cl][Gd]([Cl])[Cl]` [GdCl3], the relaxivity in data set [6] was determined as 5.1 mM⁻¹ s⁻¹.
